{
  "source": "patent US9532520B2",
  "about": "“Drought tolerant plants” (NUNHEMS B.V., priority 2009, dated 2017)",
  "system": "tomato seedlings (Solanum lycopersicum cv. Moneymaker)",
  "assay": "Root growth assay on ½MS media containing ABA",
  "type": "in vivo",
  "details": "wild type tomato; 0, 5, 10 or 40 μM ABA; root length seven days after transfer, relative to medium without ABA",
  "procedure": "Seeds were sterilized as described above and sown in water containing […]. After radicle protrusion ten seeds of each line were placed on ½MS media containing either 0, 5, 10, or 40 μM ABA. The roots were measured and the plates were placed in vertical position and grown under conditions described above. Seven days after transfer the length of the root was measured again and root growth was calculated as a percentage of root growth compared to ½MS media without ABA (100%). Experiments were carried out three times and mean values plus SD are shown. Student's t-tests were performed to test for significance (p<0.05).",
  "data": [
    {"smiles": "CC1=CC(=O)CC(C)(C)[C@@]1(O)/C=C/C(C)=C\\C(=O)O", "note": "[ABA, abscisic acid]", "values": [
      {"measurement": "root growth after germination", "result": "reduced"}
    ]}
  ]
}
